According to patent US6551831B2, “Dyes and methods of detection of nucleic acid in immature red blood cells” (Coulter International Corp., priority 2000, dated 2003):
Read-outs that look alike come from different tables or passages of the source.

What was measured:
calf liver RNA = assay: Fluorescence of dyes in PBS with and without free calf liver RNA (spectrofluorometer); assay type: binding; conditions: for Fluorescence enhancement ratio (Bound/Unbound): RNA-bound dye intensity / free dye intensity; for Fluorescence Intensity Unbound to RNA / Fluorescence Intensity Bound to RNA: Table 1, peak emission wavelength; for Fluorescence Intensity Unbound to RNA: dye 2 μM in PBS, no RNA; for Fluorescence Intensity Bound to RNA: dye 2 μM, calf liver RNA 8 mg/ml in PBS
Procedure: For fluorescence measurements, a stock solution of each compound in DMSO was made (as described in Example 1D). A portion of this stock solution was diluted in PBS to obtain a dye concentration of 2 μm. 1 ml of this dilute solution was placed in a glass cuvette and the fluorescence spectra obtained exciting the dye at its excitation wavelength maximum. Next, 1 ml of a solution of free calf liver RNA (Sigma) dissolved in PBS at a concentration of 8 mg/ml, and a measured volume of the dye stock solution was mixed to obtain a dye concentration of 2 μM in the RNA solution. This dye solution diluted in the RNA solution was placed in a glass cuvette and the fluorescence spectra measured using the same excitation as in the previous measurement.
These intensities were obtained at the peak emission wavelengths of each fluorescence spectra measured as described above. FIG. 1C compares the fluorescence intensities of the RNA-bound and unbound dyes in graphical form.

Torula yeast RNA = assay: Fluorescence of dyes in PBS with and without free Torula yeast RNA, excitation 633 nm; assay type: binding; conditions: Table 4, Group-III dyes; for Fluorescence Intensity Unbound to RNA: conc. 2 μm in PBS, peak of emission spectrum; for Fluorescence Intensity Bound to RNA 1 mg/ml: conc. 2 μm
Procedure: To compare the relative fluorescence intensities of the dyes in bound and unbound states, fluorescence measurements were conducted in a spectrofluorometer by exciting each dye solution at 633 nm under appropriate conditions, recording the fluorescence spectrum of each sample, and measuring the intensities at the peak of these fluorescence spectra. […] A portion of the stock solution for the Dye-1 was diluted in PBS to obtain a dye concentration of […]. […] The fluorescence spectrum of this dye solution in presence of RNA was measured by illuminating the sample at 633 nm.

reticulocytes [1] = assay: Rapid staining of reticulocytes in whole blood with dye in rapid staining composition, flow cytometry (HeNe 632.8 nm); assay type: cell-based; conditions: 5 μM dye, analyzed immediately
Procedure: Approximately 11.5 mW of 632.8 nm laser light from the above laser was incident on the beam shaping optics of the flow cytometer. Forward light scatter (FS), side scatter (SS) and one fluorescence (FL) parameter in the orthogonal direction were measured to analyze the red cells. The red cells were gated on a SS vs. FS dotplot. A fixed gate was then used to enumerate […] on a FL vs. FS dotplot. […] The […] reagent is a solution comprising about 20 μg/ml Dodecyl-β-D-maltoside and 0.05% Proclin 300 in PBS at about pH 7.4 and about 290 mOsm. […] The mixture was then aspirated into the XLTM flow cytometer containing the red HeNe laser for analysis. […] The mixture was then aspirated into the XLTM flow cytometer containing the red HeNe laser for analysis. […] The […] reagent is a solution comprising about 20 μg/ml Dodecyl-β-D-maltoside and 0.05% Proclin 300 in PBS at about pH 7.4 and about 290 mOsm. […] The […] reagent is a solution comprising about 20 μg/ml Dodecyl-β-D-maltoside and 0.05% Proclin 300 in PBS at about pH 7.4 and about 290 mOsm. […] The […] reagent is a solution comprising about 20 μg/ml Dodecyl-β-D-maltoside and 0.05% Proclin® 300 in PBS at about pH 7.4 and about 290 mOsm.

Calf thymus DNA = assay: Fluorescence of dyes in PBS with and without free calf thymus DNA, excitation 633 nm; assay type: binding; conditions: Table 5; for Fluorescence Intensity Unbound to DNA: Group-III dyes in PBS, peak of emission spectrum; for Fluorescence Intensity Bound to DNA 0.5 mg/ml: Group-III dyes
Procedure: To compare the relative fluorescence intensities of the dyes in bound and unbound states, fluorescence measurements were conducted in a spectrofluorometer by exciting each dye solution at 633 nm under appropriate conditions, recording the fluorescence spectrum of each sample, and measuring the intensities at the peak of these fluorescence spectra. […] Next, the fluorescence spectrum of the dye solution was measured by illuminating the sample at 633 nm.

reticulocytes [2] = tested on: reticulocytes

Row | SMILES | Fluorescence enhancement ratio (Bound/Unbound) (calf liver RNA) | Fluorescence Intensity Unbound to RNA (calf liver RNA) | Fluorescence Intensity Bound to RNA (calf liver RNA) | Fluorescence Intensity Unbound to RNA (Torula yeast RNA) | Fluorescence Intensity Bound to RNA 1 mg/ml (Torula yeast RNA) | Fluorescence Intensity Unbound to DNA (Calf thymus DNA) | Fluorescence Intensity Bound to DNA 0.5 mg/ml (Calf thymus DNA) | further results
1 | Cc1ccc2c(c1)sc(/C=C/C=C1\C=CN(C(C)C)c3ccccc31)[n+]2CCO [ReticRed5] | 292.884 | 2.24 | 656.06 | – | – | – | – | –
2 | COc1cc(CN2C=C/C(=C\C=C\c3sc4ccccc4[n+]3CCO)c3ccccc32)cc(OC)c1 [Dye-3] | – | – | – | 10 | 328 | 15 | 400 | percentage of reticulocytes enumerated (reticulocytes [1]; Example 9 Run 7, normal donor): 2.3%; percentage of reticulocytes enumerated (reticulocytes [1]; Example 9 Run 8, abnormal donor (reference 12%)): approximately 14.6%; percentage of reticulocytes enumerated (reticulocytes [1]; Example 9 Run 9, another abnormal donor (reference 27%)): approximately 24%
3 | C[n+]1c(/C=C/C=C2\C=CN(Cc3ccccc3B(O)O)c3ccccc32)sc2ccccc21 [Dye-6] | – | – | – | 6 | 410 | 4 | 380 | –
4 | CCNc1cc2[s+]c3cc(NCC)c(C)cc3nc2cc1C.[Cl-] [New Methylene Blue] | – | – | – | – | – | – | – | retic percentage (reticulocytes [2]; Gen*S method, blood sample of Example 3): 6.7%; retic percentage (reticulocytes [2]; normal donor of Example 4 Run 3, commercially available clinical hematology analyzer): 0.95%
5 | Cc1ccc2c(c1)sc(/C=C/C=C1\C=CN(CCO)c3ccccc31)[n+]2CCO [ReticRed6] | 225.164 | 2.75 | 619.2 | – | – | – | – | –
6 | OCC[n+]1c(/C=C/C=C2\C=CN(Cc3ccccc3)c3ccccc32)sc2ccccc21 [Dye-5] | – | – | – | 10 | 420 | 10 | 660 | –
